Laboratory results as given in paper PMC12618397 (Clinical Pharmacokinetics, 2025).
Where two headings read alike, the source gives them in different places.

Experiments:
[1] = type: in vivo, humans; conditions: final model
plasma protein = conditions: cited from earlier work
[2] = cited from earlier work
OATP1B = conditions: oral glyburide 1.25 mg, i.v. infusion of 600 mg rifampicin, over 24 h; cited from earlier work

| clearance CL=VB×ke [1] | kBP (transfer blood to pancreas) [1] | kBS (transfer blood to spleen) [1] | kPB (transfer pancreas to blood) [1] | kSB (transfer spleen to blood) [1] | kL1B (exchange rate liver to blood) ([1]; without rifampicin) | Compound | binding to plasma protein (plasma protein) | volume of distribution outside central compartment (previous estimates) ([2]; 95% CI 1.3–3.2 L derived from reported estimates) | central volume of distribution ([2]; Rydberg et al.) | elimination rate ([2]; Rydberg et al.) | central volume of distribution ([2]; traditional PK modeling, blood samples) | increase of plasma AUC vs baseline (OATP1B) |
| --- | --- | --- | --- | --- | --- | --- | --- | --- | --- | --- | --- | --- |
| 2.84 L/h | 5.9 h⁻¹ | 5.9 h⁻¹ | 138 h⁻¹ | 131 h⁻¹ | 20 h⁻^1 | COc1ccc(Cl)cc1C(=O)NCCc1ccc(S(=O)(=O)NC(=O)NC2CCCCC2)cc1 [[^11C]glyburide] | > 99% | – | – | – | – | – |
| – | – | – | – | – | – | COc1ccc(Cl)cc1C(=O)NCCc1ccc(S(=O)(=O)NC(=O)NC2CCCCC2)cc1 [glyburide] | – | 2 L | 3.63 L | 1.59 h⁻^1 | 3.8 L | 125 ± 51.5% |
